Measurements from paper PMC5909127, “Optimization of a “bump-and-hole” approach to allele-selective BET bromodomain inhibition” (Chemical Science, 2018).

How the values were obtained:
[1] = in vitro; settings: PAMPA, pH 7.4
[2] = target: T1, BRD3 BD2 WT (Homo sapiens, UniProt Q15059); test: competitive AlphaLISA; type: binding
[3] = target: T2, BRD3 BD1 WT (Homo sapiens, UniProt Q15059); test: competitive AlphaLISA; type: binding
[4] = target: T3, BRD2 BD2 L/V (Homo sapiens, UniProt P25440, L383V); test: competitive AlphaLISA; type: binding
[5] = target: T4, BRD3 BD1 L/V (Homo sapiens, UniProt Q15059, L70V); test: ITC; type: binding; settings: for ΔH BRD3 BD1 L/V: ITC
[6] = tested on: L/V BET bromodomains (BD1 and BD2 of BRD2, BRD3 and BRD4); test: competitive AlphaLISA (Bio-JQ1 displacement); type: binding, human; settings: for AlphaLISA pIC50 ± SD Δ: L/V minus WT
[7] = target: WT BET bromodomains (BD1 and BD2 of BRD2, BRD3 and BRD4); test: competitive AlphaLISA (Bio-JQ1 displacement); type: binding, human; settings: mean and SD of all somatic bromodomains; active enantiomer concentration
[8] = target: T5, BRD2 BD1 L/V (Homo sapiens, UniProt P25440, L110V); test: ITC; type: binding; settings: for ΔH BRD2 BD1 L/V: ITC
[9] = target: T6, BRD4 BD1 WT (Homo sapiens, UniProt O60885); test: ITC; type: binding; settings: for ΔH BRD4 BD1 WT: ITC
[10] = Intrinsic Clearance; settings: mouse liver microsomes
[11] = target: T7, BRD4 BD2 WT (Homo sapiens, UniProt O60885); test: ITC; type: binding
[12] = target: T8, BRD2 BD1 WT (Homo sapiens, UniProt P25440); test: competitive AlphaLISA; type: binding
[13] = target: T9, BRD3 BD2 L/V (Homo sapiens, UniProt Q15059, L345V); test: competitive AlphaLISA; type: binding
[14] = target: T10, BRD4 BD1 L/V (Homo sapiens, UniProt O60885, L94V); test: ITC; type: binding; settings: for ΔH BRD4 BD1 L/V / Kd: ITC; for Kd: Kd BRD4 BD1 L/V, 30°C
[15] = target: T7, BRD4 BD2 WT; test: competitive AlphaLISA; type: binding
[16] = target: BRDT BD2 L/V (Homo sapiens, UniProt Q58F21, L306V); test: competitive AlphaLISA; type: binding
[17] = target: WT somatic BET bromodomains; test: ITC; settings: mean and SD of all somatic bromodomains
[18] = target: T11, BRD4 BD2 L/V (Homo sapiens, UniProt O60885, L387V); test: ITC; type: binding; settings: for ΔH BRD4 BD2 L/V: ITC
[19] = target: T5, BRD2 BD1 L/V; test: competitive AlphaLISA; type: binding
[20] = target: T6, BRD4 BD1 WT; test: competitive AlphaLISA; type: binding; settings: AlphaLISA pIC50 Value BRD4 BD1 WT
[21] = target: T12, BRD2 BD2 WT (Homo sapiens, UniProt P25440); test: competitive AlphaLISA; type: binding
[22] = target: T4, BRD3 BD1 L/V; test: competitive AlphaLISA; type: binding
[23] = Plasma Half-life; settings: BALB/c, mouse, pH 7.4
[24] = target: BRDT BD2 WT (Homo sapiens, UniProt Q58F21); test: competitive AlphaLISA; type: binding
[25] = target: T3, BRD2 BD2 L/V; test: ITC; type: binding; settings: for ΔH BRD2 BD2 L/V: ITC
[26] = target: BRDT BD1 L/V (Homo sapiens, UniProt Q58F21, L63V); test: competitive AlphaLISA; type: binding
[27] = target: T11, BRD4 BD2 L/V; test: competitive AlphaLISA; type: binding
[28] = tested on: L/V somatic BET bromodomains; test: ITC; settings: for ITC pKd ± SD Δ: L/V minus WT
[29] = target: T8, BRD2 BD1 WT; test: ITC; type: binding
[30] = target: T1, BRD3 BD2 WT; test: ITC; type: binding; settings: for ΔH BRD3 BD2 WT: ITC
[31] = target: T9, BRD3 BD2 L/V; test: ITC; type: binding; settings: for ΔH BRD3 BD2 L/V: ITC
[32] = target: T10, BRD4 BD1 L/V; test: competitive AlphaLISA; type: binding; settings: AlphaLISA pIC50 Value BRD4 BD1 L/V
[33] = target: BRDT BD1 WT (Homo sapiens, UniProt Q58F21); test: competitive AlphaLISA; type: binding
[34] = target: T2, BRD3 BD1 WT; test: ITC; type: binding
[35] = target: T12, BRD2 BD2 WT; test: ITC; type: binding

T4 sequence (Q15059 24-144 L70V limits assumed): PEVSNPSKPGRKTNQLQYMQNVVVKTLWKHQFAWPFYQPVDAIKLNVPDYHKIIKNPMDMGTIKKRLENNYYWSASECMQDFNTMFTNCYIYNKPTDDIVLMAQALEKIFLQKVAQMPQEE
T3 sequence (P25440 344-455 L383V): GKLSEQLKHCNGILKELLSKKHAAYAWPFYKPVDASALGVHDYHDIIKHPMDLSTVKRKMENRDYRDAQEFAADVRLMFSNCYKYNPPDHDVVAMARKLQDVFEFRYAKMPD
T9 sequence (Q15059 306-416 L345V limits assumed): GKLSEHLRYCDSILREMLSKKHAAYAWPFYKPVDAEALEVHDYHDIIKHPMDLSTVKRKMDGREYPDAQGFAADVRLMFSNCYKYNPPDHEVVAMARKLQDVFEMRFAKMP
T2 sequence (Q15059 24-144): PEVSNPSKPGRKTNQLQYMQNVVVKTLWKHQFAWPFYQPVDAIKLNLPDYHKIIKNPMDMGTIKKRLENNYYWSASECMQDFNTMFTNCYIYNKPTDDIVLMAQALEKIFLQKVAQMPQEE
T1 sequence (Q15059 306-416): as the sequence (Q15059 306-416 L345V limits assumed) above, with V40L counted along it
T5 sequence (P25440 71-176 L110V limits assumed): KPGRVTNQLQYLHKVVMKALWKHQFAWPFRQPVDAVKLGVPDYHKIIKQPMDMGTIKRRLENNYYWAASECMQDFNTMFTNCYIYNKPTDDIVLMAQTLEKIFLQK
T8 sequence (P25440 71-176): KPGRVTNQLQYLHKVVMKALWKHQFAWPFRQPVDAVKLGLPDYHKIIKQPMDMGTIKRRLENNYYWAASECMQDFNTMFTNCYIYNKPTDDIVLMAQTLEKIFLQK
T12 sequence (P25440 344-455): as the sequence (P25440 344-455 L383V) above, with V40L counted along it

SMILES: CCNC(=O)[C@H](C)[C@@H]1N=C(c2ccc(Cl)cc2)c2ccc(OC)cc2-n2c(C)nnc21 (relative stereo) [Compound 21]
- Papp [1]: 4 ×10⁻⁶ cm/s
- IC50 [2]: 15.8 µM
- IC50 [3]: 5.01 µM
- IC50 [4]: 1 µM
- Kd [5]: 0.41 µM
- ΔH BRD3 BD1 L/V [5]: -10.7 kcal/mol
- N BRD3 BD1 L/V ([5]; ITC stoichiometry): 0.92
- AlphaLISA pIC50 ± SD Δ [6]: 1.3 ± 0.2
- AlphaLISA pIC50 ± SD L/V ([6]; mean and SD of all somatic bromodomains, active enantiomer concentration): 6.0 ± 0.2
- AlphaLISA pIC50 ± SD WT [7]: 4.7 ± 0.3
- Kd [8]: 0.99 µM
- ΔH BRD2 BD1 L/V [8]: -8.8 kcal/mol
- N BRD2 BD1 L/V ([8]; ITC stoichiometry): 0.97
- Kd [9]: 39 µM
- ΔH BRD4 BD1 WT [9]: -3.3 kcal/mol
- CL int [10]: 1.5 ml min^–1 g^–1
- Kd [11]: > 60 µM
- IC50 [12]: 39.8 µM
- IC50 [13]: 0.501 µM
- ΔH BRD4 BD1 L/V [14]: -5.9 kcal/mol
- N BRD4 BD1 L/V ([14]; ITC stoichiometry): 0.88
- Kd [14]: 0.37 µM
- IC50 [15]: 31.6 µM
- IC50 [16]: 1.58 µM
- ITC pKd ± SD WT [17]: 4.5 ± 0.4
- Kd [18]: 0.32 µM
- ΔH BRD4 BD2 L/V [18]: -4.4 kcal/mol
- N BRD4 BD2 L/V ([18]; ITC stoichiometry): 1.06
- IC50 [19]: 2 µM
- IC50 [20]: 25.1 µM
- IC50 [21]: 15.8 µM
- IC50 [22]: 0.501 µM
- half-life at 50 µM [23]: > 3 h
- IC50 [24]: 25.1 µM
- Kd [25]: 0.23 µM
- ΔH BRD2 BD2 L/V [25]: -4.8 kcal/mol
- N BRD2 BD2 L/V ([25]; ITC stoichiometry): 0.84
- IC50 [26]: 2.51 µM
- IC50 [27]: 1.26 µM
- ITC pKd ± SD Δ [28]: 1.8 ± 0.5
- ITC pKd ± SD L/V ([28]; mean and SD of all somatic bromodomains): 6.3 ± 0.2
- Kd [29]: > 60 µM
- Kd [30]: 11 µM
- ΔH BRD3 BD2 WT [30]: -4.5 kcal/mol
- N BRD3 BD2 WT ([30]; ITC stoichiometry): 0.46
- Kd [31]: 0.8 µM
- ΔH BRD3 BD2 L/V [31]: -6.7 kcal/mol
- N BRD3 BD2 L/V ([31]; ITC stoichiometry): 0.90
- IC50 [32]: 1 µM
- IC50 [33]: 50.1 µM

SMILES: C=CC[C@@H](C(=O)OC)[C@@H]1N=C(c2ccc(Cl)cc2)c2cc(OC)ccc2-n2c(C)nnc21 (racemic) [Compound 5, (+-)methyl (R)-2-((S)-6-(4-chlorophenyl)-8-methoxy-1-methyl-4H-benzo[f][1,2,4]triazolo[4,3-a][1,4]diazepin-4-yl)pent-4-enoate]
- Papp [1]: 12.7 ×10⁻⁶ cm/s
- IC50 [2]: 10 µM
- IC50 [3]: 3.98 µM
- IC50 [4]: 0.158 µM
- Kd [5]: 0.27 µM
- ΔH BRD3 BD1 L/V [5]: -11.3 kcal/mol
- AlphaLISA pIC50 ± SD Δ [6]: 1.5 ± 0.3
- AlphaLISA pIC50 ± SD WT [7]: 5.1 ± 0.1
- Kd [8]: 0.47 µM
- ΔH BRD2 BD1 L/V [8]: -10.3 kcal/mol
- Kd [9]: 9.7 µM
- ΔH BRD4 BD1 WT [9]: -3.5 kcal/mol
- N BRD4 BD1 WT ([9]; ITC stoichiometry): 1.10
- CL int [10]: 6.7 ml min^–1 g^–1
- ΔH BRD4 BD2 WT ([11]; ITC): -2.2 kcal/mol
- N BRD4 BD2 WT ([11]; ITC stoichiometry): 0.98
- Kd [34]: 1.5 µM
- ΔH BRD3 BD1 WT ([34]; ITC): -2.3 kcal/mol
- N BRD3 BD1 WT ([34]; ITC stoichiometry): 0.85
- IC50 [12]: 10 µM
- IC50 [13]: 0.126 µM
- ΔH BRD4 BD1 L/V [14]: -7.4 kcal/mol
- Kd [14]: 0.18 µM
- IC50 [15]: 10 µM
- ITC pKd ± SD WT [17]: 5.1 ± 0.4
- Kd [18]: 0.17 µM
- ΔH BRD4 BD2 L/V [18]: -6.4 kcal/mol
- IC50 [19]: 1 µM
- IC50 [20]: 7.94 µM
- IC50 [21]: 10 µM
- IC50 [22]: 0.126 µM
- half-life at 50 µM [23]: > 3 h
- Kd [35]: 5.8 µM
- ΔH BRD2 BD2 WT ([35]; ITC): -2.3 kcal/mol
- N BRD2 BD2 WT ([35]; ITC stoichiometry): 0.75
- Kd [25]: 0.24 µM
- ΔH BRD2 BD2 L/V [25]: -5.9 kcal/mol
- IC50 [26]: 2 µM
- IC50 [27]: 0.251 µM
- ITC pKd ± SD Δ [28]: 1.5 ± 0.5
- Kd [29]: 8.4 µM
- ΔH BRD2 BD1 WT ([29]; ITC): -4.0 kcal/mol
- N BRD2 BD1 WT ([29]; ITC stoichiometry): 1.0
- Kd [30]: 23 µM
- ΔH BRD3 BD2 WT [30]: -3.7 kcal/mol
- Kd [31]: 0.31 µM
- ΔH BRD3 BD2 L/V [31]: -8.5 kcal/mol
- IC50 [32]: 0.316 µM
- IC50 [33]: 20 µM
